Values quoted from earlier work, collected in US6359007B1 (ChronoRX, LLC, priority 1999, dated 2002).
Where two headings read alike, the source gives them in different places.

How the values were obtained:
[1] = stomach in the "fed" state
[2] = per meal, curvilinear falloff
[3] = not given; remark: listed apart in the source
[4] = in vivo

[Zn+2] [Zn^+2, Zinc]
increase of mean plasma Zn^+2 above pre-load levels (11-fold increase in Zn^+2 intake): About 37% | Zn^+2 absorption (in vivo): 40% to 86 | ingested Zn^+2 entering the plasma (in vivo): About 37% | time by which gastrointestinal absorption is essentially complete (in vivo): ≤ 4 h

N=C(N)NCCC[C@H](N)C(=O)O [L-arginine]
gastrointestinal uptake of dietary arginine [1]: about 38%

[Mg+2] [Mg^+2, Magnesium]
maximum bolus absorption [2]: 8 meq

O=C1O[C@H]([C@@H](O)CO)C(O)=C1O [AA, ascorbic acid]
mean steady state plasma concentration ([3]; daily oral dose 200 mg): 12 mg/L | mean steady state plasma concentration ([3]; daily oral dose 2500 mg): 15 mg/L

[Cu+2] [Cu^+2, Copper]
Absorption (via carrier-mediated transport) [4]: 30-40% | absorption of ingested Cu^+2 [4]: 30-40%
